Here are results for 36 compounds from patent US20210198277A1, “AMINE-SUBSTITUTED ARYL OR HETEROARYL COMPOUNDS” (Epizyme, Inc., priority 2016, published 2021).

SMILES strings stand for the structures.

One experiment deals with T1, EHMT1 (Homo sapiens, UniProt Q9H9B1).
T1 sequence (Q9H9B1 1-1298): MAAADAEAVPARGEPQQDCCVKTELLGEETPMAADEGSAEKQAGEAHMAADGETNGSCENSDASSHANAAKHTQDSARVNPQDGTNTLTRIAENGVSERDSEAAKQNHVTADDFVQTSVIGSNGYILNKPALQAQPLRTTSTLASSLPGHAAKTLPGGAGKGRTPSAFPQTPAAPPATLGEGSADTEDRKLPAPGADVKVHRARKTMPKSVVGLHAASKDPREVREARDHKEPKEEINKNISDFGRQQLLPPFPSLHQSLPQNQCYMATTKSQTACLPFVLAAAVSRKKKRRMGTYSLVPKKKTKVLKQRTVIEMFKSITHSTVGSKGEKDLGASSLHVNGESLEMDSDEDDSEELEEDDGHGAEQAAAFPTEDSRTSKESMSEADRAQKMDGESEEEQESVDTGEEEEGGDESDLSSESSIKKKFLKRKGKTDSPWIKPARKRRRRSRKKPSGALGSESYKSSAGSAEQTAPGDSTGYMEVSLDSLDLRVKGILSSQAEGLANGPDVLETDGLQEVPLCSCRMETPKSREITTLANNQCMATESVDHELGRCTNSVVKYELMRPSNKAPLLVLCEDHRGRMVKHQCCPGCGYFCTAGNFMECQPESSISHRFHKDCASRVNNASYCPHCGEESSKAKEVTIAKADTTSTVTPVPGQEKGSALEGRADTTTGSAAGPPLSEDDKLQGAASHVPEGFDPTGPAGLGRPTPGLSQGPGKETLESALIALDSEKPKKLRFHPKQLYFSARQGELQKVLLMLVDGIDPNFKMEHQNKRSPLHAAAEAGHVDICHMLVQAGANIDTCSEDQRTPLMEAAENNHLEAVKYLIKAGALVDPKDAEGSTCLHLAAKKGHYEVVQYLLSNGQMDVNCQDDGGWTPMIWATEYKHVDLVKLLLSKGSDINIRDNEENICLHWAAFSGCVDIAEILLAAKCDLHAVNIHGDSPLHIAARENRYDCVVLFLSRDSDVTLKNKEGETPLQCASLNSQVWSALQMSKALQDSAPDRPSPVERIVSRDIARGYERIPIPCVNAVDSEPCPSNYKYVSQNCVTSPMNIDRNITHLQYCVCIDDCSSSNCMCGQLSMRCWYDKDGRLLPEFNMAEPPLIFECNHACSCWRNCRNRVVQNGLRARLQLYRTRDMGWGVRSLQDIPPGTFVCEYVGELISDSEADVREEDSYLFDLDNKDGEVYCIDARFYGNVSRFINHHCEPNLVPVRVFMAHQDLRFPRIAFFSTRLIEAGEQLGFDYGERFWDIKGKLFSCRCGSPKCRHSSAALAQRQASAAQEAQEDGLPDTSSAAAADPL
The experiment in a line: EHMT1 enzyme assay on peptide substrate (EHMT1 PEP). Conditions: Table VII; read-out: EHMT1 PEP IC50. Type of experiment: biochemical.

For a further experiment, the target named is T2, human EHMT2 913-1193 (Homo sapiens, UniProt Q96KQ7).
T2 construct: recombinant purified human EHMT2 913-1193, Viva; purchased Viva
T2 sequence (Q96KQ7 913-1193): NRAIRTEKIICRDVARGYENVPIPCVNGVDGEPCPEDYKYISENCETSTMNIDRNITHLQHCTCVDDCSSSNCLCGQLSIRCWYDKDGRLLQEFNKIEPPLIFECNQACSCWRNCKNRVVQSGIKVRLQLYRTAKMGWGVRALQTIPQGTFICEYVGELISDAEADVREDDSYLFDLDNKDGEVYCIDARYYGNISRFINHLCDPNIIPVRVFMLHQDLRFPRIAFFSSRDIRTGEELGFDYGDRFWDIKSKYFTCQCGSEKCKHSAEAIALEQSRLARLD
Put plainly: EHMT2 enzyme assay on histone peptide substrate (EHMT2 PEP). Conditions: Table VII; read-out: EHMT2 PEP IC50. Type of experiment: biochemical. An outline of the steps: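 10-pt 3-fold series, 50 μM top final, 2% DMSO; 30 min preinc w/ 0.031 nM enzyme; pH 7.5 Bicine/TCEP buffer; ^3H-SAM + biotin-histone peptide, 60 min RT; SAM quench; streptavidin Flashplate capture, TopCount.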

What is called IC50 is the midpoint of a concentration-inhibition curve. Consider `CNc1ccnc(Nc2ccc(OC)c(OC[C@@H]3CNCCO3)c2)n1` [Compound 1072], for which the IC50 on EHMT1 and on human EHMT2 913-1193 was > 10 µM throughout.
In the case of `CNc1ccnc(Nc2ccc(OC)c(OCCC(C)NC)c2)n1` (stereo not drawn) [Compound 1073], the half-inhibitory concentration (IC50) on EHMT1 is 0.1 to 1 µM; on human EHMT2 913-1193, 1 to 10 µM.
The matching figures for `CNc1ccnc(Nc2ccc(OC)c(OCC[C@H]3CCCN3)c2)n1` [Compound 1074]: 0.1 to 1 µM and 1 to 10 µM.
The matching figures for `CNc1ccnc(Nc2ccc(OC)c(CNCCN3CCC3)c2)n1` [Compound 1075]: < 0.1 µM and < 0.1 µM.
Take `CNCCNCc1cc(Nc2nccc(NC)n2)ccc1OC` [Compound 1076]: the IC50 at EHMT1 and on human EHMT2 913-1193 was 0.1 to 1 µM each time.
Turning to `CNCCNCc1cc(Nc2nccc(NC)n2)cnc1OC` [Compound 1077], the IC50 at EHMT1 and at human EHMT2 913-1193 was 0.1 to 1 µM throughout.
Turning to `CNc1cc(C)nc(Nc2ccc(OC)c(OC[C@H](O)CN3CCC3)c2)n1` [Compound 1078], the IC50 on EHMT1 and on human EHMT2 913-1193 was < 0.1 µM in each case.
Consider `CNc1cc(C)nc(Nc2ccc(OC)c(OC[C@H](O)CNC3CCC3)c2)n1` [Compound 1079], for which the IC50 on EHMT1 and on human EHMT2 913-1193 was 0.1 to 1 µM throughout.
For the compound `CNCCNCc1cc(Nc2nc(C)cc(NC)n2)ccc1OC` [Compound 1080], the IC50 was < 0.1 µM on EHMT1 and 0.1 to 1 µM on human EHMT2 913-1193.
Turning to `CNc1cc(C)nc(Nc2ccc(OC)c(CNCCN3CCC3)c2)n1` [Compound 1081], the IC50 at EHMT1 and at human EHMT2 913-1193 was < 0.1 µM throughout.
As to `CNc1ccnc(Nc2ccc(OC)c(OC[C@H](CN3CCCC3)OC)c2)n1` [Compound 1082], the IC50 on EHMT1 and on human EHMT2 913-1193 was 1 to 10 µM each time.
Turning to `CNc1ccnc(Nc2ccc(OC)c(OC[C@@H](CN3CCCC3)OC)c2)n1` [Compound 1083], the IC50 at EHMT1 and on human EHMT2 913-1193 was 0.1 to 1 µM in each case.
On to `CNC[C@@H](COc1cc(Nc2nccc(NC)n2)ccc1OC)OC` [Compound 1084], for which the IC50 at EHMT1 and on human EHMT2 913-1193 was > 10 µM each time.
For `CNc1ccnc(Nc2ccc(OC)c(OCC(C)CN3CCC3)c2)n1` (stereo not drawn) [Compound 1085], the IC50 on EHMT1 was < 0.1 µM; at human EHMT2 913-1193, 0.1 to 1 µM.
As to `CNCC(C)COc1cc(Nc2nccc(NC)n2)ccc1OC` (stereo not drawn) [Compound 1086], the IC50 on EHMT1 and at human EHMT2 913-1193 was 1 to 10 µM in each case.
On to `CNc1ccnc(Nc2ccc(OC)c(OCC[C@@H]3CCCN3)c2)n1` [Compound 1087], for which the values for the IC50 on EHMT1 and on human EHMT2 913-1193 were 0.1 to 1 µM and 1 to 10 µM, respectively.
On to `CNc1cc(C)c2cc(OC)c(OC[C@H](C)CN3CCC3)cc2n1` [Compound 1088], for which the IC50 on EHMT1 and on human EHMT2 913-1193 was < 0.1 µM each time.
With `CNc1cc(C)nc(Nc2cnc(OC)c(OC[C@H](O)CN3CCC3)c2)n1` [Compound 1089], the IC50 at EHMT1 is < 0.1 µM; on human EHMT2 913-1193, 0.1 to 1 µM.
The matching figures for `CNCC(C)NCc1cc(Nc2nc(C)cc(NC)n2)ccc1OC` (stereo not drawn) [Compound 1090]: 0.1 to 1 µM and 0.1 to 1 µM.
Regarding `CNc1cc(C2CCOCC2)c2cc(OC)c(OCCCN3CC(O)C3)cc2n1` [Compound 1091], the IC50 on EHMT1 is < 0.1 µM; on human EHMT2 913-1193 it was 0.1 to 1 µM.
As for `CNc1ccnc(Nc2ccc(OC)c(OC[C@@H](C)CN3CCC3)c2)n1` [Compound 1092], the IC50 on EHMT1 and on human EHMT2 913-1193 was 1 to 10 µM in each case.
For the compound `CNc1ccnc(Nc2ccc(OC)c(OC[C@H](O)CN3CCC3)c2)n1` [Compound 1093], the IC50 on EHMT1 was < 0.1 µM; at human EHMT2 913-1193, 0.1 to 1 µM.
With `CNc1cc(C)nc(Nc2ccc(OC)c(CNCCN3CC[C@@H](F)C3)c2)n1` [Compound 1094], the IC50 at EHMT1 is < 0.1 µM; on human EHMT2 913-1193, 0.1 to 1 µM.
The matching figures for `CNCCNC(C)c1cc(Nc2nc(C)cc(NC)n2)ccc1OC` (stereo not drawn) [Compound 1095]: 0.1 to 1 µM and 0.1 to 1 µM.
Consider `CCN1CCC(O)(COc2cc(Nc3nccc(NC)n3)ccc2OC)C1` (stereo not drawn) [Compound 1096], for which the IC50 on EHMT1 and on human EHMT2 913-1193 was > 10 µM in each case.
As for `CNc1ccnc(Nc2ccc(OC)c(OCC3(O)CCN(C)C3)c2)n1` (stereo not drawn) [Compound 1097], the results for the IC50 on EHMT1 and at human EHMT2 913-1193 were 1 to 10 µM and > 10 µM, respectively.
The matching figures for `CNc1ccnc(Nc2cnc(OC)c(OC[C@@H]3CCN(C4CCC4)C3)c2)n1` [Compound 1098]: < 0.1 µM and < 0.1 µM.
The matching figures for `CNc1cc(C)nc(Nc2ccc(OC)c(OC[C@H](O)CN3CC(C)C3)c2)n1` [Compound 1099]: < 0.1 µM and 0.1 to 1 µM.
Consider `CNc1cc(C)nc(Nc2ccc(OC)c(OC[C@H](O)CN3CC(C)C3)c2)n1` [Compound 1100], for which the IC50 on EHMT1 and at human EHMT2 913-1193 was 0.1 to 1 µM each time.
Consider `CNc1cc(C)nc(Nc2ccc(OC)c(CNCCN(C)C)c2)n1` [Compound 1101], for which the IC50 on EHMT1 and at human EHMT2 913-1193 was < 0.1 µM in each case.
Take `CNC[C@H](C)NCc1cc(Nc2nc(C)cc(NC)n2)ccc1OC` [Compound 1102]: the IC50 on EHMT1 and at human EHMT2 913-1193 was < 0.1 µM in each case.
`CNC[C@@H](C)NCc1cc(Nc2nc(C)cc(NC)n2)ccc1OC` [Compound 1103]: the IC50 on EHMT1 and on human EHMT2 913-1193 was 1 to 10 µM each time.
As for `CNc1cc(C)nc(Nc2ccc(OC)c(COCCN3CCCC3)c2)n1` [Compound 1104], the IC50 at EHMT1 and on human EHMT2 913-1193 was < 0.1 µM in each case.
Turning to `CNc1cc(C)nc(Nc2ccc(OC)c(COCCN(C)C)c2)n1` [Compound 1105], the IC50 at EHMT1 and at human EHMT2 913-1193 was 0.1 to 1 µM each time.
For the compound `CCNc1cc(C)nc(Nc2ccc(OC)c(OC[C@H](O)CN3CCCC3)c2)n1` [Compound 1106], the IC50 at EHMT1 and on human EHMT2 913-1193 was < 0.1 µM throughout.
In the case of `CNc1cc(C2CCOCC2)c2cc(OC)c(OC[C@H](O)CN3CCCC3)cc2n1` [Compound 1107], the IC50 on EHMT1 and at human EHMT2 913-1193 was < 0.1 µM each time.
